Test results published in patent US20180140578A1, “METHODS AND COMPOSITIONS FOR THE DIAGNOSIS AND SELECTIVE TREATMENT OF CANCER” (Board of Regents of the University of Texas System, priority 2016, published 2018).
pIC50: −log10 of the molar value. Read-outs that look alike come from different tables or passages of the source.

Tests used:
Experiment in all cases: IC50 assay, NSCLC cell lines (Cell Titer Glo, total ATP)
Assay type in all cases: cell-based
H1819 = conditions: Homo sapiens
Description: (§1) Cells were plated at ˜15% confluence in a media comprising 5% concentration of fetal bovine serum supplemented with RPMI, which included 2 mM L-Glutamine in a 96 well dish. […] Following three days of incubation in a 5% CO2 incubator, the total ATP in each well was quantified using Cell Titer Glo (Promega). […] The solid lines represent the medians.

HCC2814 = conditions: Homo sapiens
Description: as §1

LC-2/AD = conditions: Homo sapiens
Description: as §1

H2250 = conditions: Homo sapiens
Description: as §1

H1355 = conditions: Homo sapiens
Description: as §1

H2342 = conditions: Homo sapiens
Description: as §1

HCC15 = conditions: Homo sapiens
Description: as §1

HCC78 = conditions: Homo sapiens
Description: as §1

HCC2279 = conditions: Homo sapiens
Description: as §1

H2882 = conditions: Homo sapiens
Description: as §1

H2452 = conditions: Homo sapiens
Description: as §1

H1975 = conditions: Homo sapiens
Description: as §1

H2030 = conditions: Homo sapiens
Description: as §1

H2444 = conditions: Homo sapiens
Description: as §1

H2009 = conditions: Homo sapiens
Description: as §1

H1770 = conditions: Homo sapiens
Description: as §1

H1993 = conditions: Homo sapiens
Description: as §1

HCC366 = conditions: Homo sapiens
Description: as §1

H1395 = conditions: Homo sapiens
Description: as §1

HCC2018 = conditions: Homo sapiens
Description: as §1

HCC1438 = conditions: Homo sapiens
Description: as §1

H1693 = conditions: Homo sapiens
Description: as §1

H441 = conditions: Homo sapiens
Description: as §1

HCC4017 = conditions: Homo sapiens
Description: as §1

A549 = conditions: Homo sapiens
Description: as §1

H1573 = conditions: Homo sapiens, NCI-H1573, read-out: Indisulam IC50 (log 10) (converted), U2AF1 WT
Description: as §1

HCC1359 = conditions: Homo sapiens
Description: as §1

H1944 = conditions: Homo sapiens
Description: as §1

H2106 = conditions: Homo sapiens
Description: as §1

[1] = read-out: Indisulam IC50 (log 10) (converted), U2AF1 WT
[2] = read-out: Indisulam IC50, U2AF1 WT
[3] = read-out: Indisulam IC50 (log 10) (converted), U2AF1 S34F
[4] = read-out: Indisulam IC50, U2AF1 S34F

## NS(=O)(=O)c1ccc(S(=O)(=O)Nc2cccc3c(Cl)c[nH]c23)cc1 [Indisulam, indisulam]
H1819; NCI-H1819, read-out: Indisulam IC50 (log 10) (converted), U2AF1 WT
  IC50: 9.6 µM
H1819; NCI-H1819, read-out: Indisulam IC50, U2AF1 WT
  pIC50: 5.02
HCC2814; [1]
  IC50: 8.72 µM
HCC2814; [2]
  pIC50: 5.06
LC-2/AD; [3]
  IC50: 0.376 µM
LC-2/AD; [4]
  pIC50: 6.42
H2250; [1]
  IC50: ≥ 500 µM
H2250; [2]
  pIC50: 2.93
H1355; NCI-H1355, read-out: Indisulam IC50 (log 10) (converted), U2AF1 WT
  IC50: 2.5 µM
H1355; NCI-H1355, read-out: Indisulam IC50, U2AF1 WT
  pIC50: 5.60
H2342; NCI-H2342, read-out: Indisulam IC50 (log 10) (converted), U2AF1 WT
  IC50: 58.6 µM
H2342; NCI-H2342, read-out: Indisulam IC50, U2AF1 WT
  pIC50: 4.23
HCC15; [1]
  IC50: 6.32 µM
HCC15; [2]
  pIC50: 5.20
HCC78; [3]
  IC50: 1.15 µM
HCC78; [4]
  pIC50: 5.94
HCC2279; [1]
  IC50: 5.68 µM
HCC2279; [2]
  pIC50: 5.25
H2882; NCI-H2882, read-out: Indisulam IC50 (log 10) (converted), U2AF1 WT
  IC50: 12.2 µM
H2882; NCI-H2882, read-out: Indisulam IC50, U2AF1 WT
  pIC50: 4.91
H2452; NCI-H2452, read-out: Indisulam IC50 (log 10) (converted), U2AF1 WT
  IC50: 1.21 µM
H2452; NCI-H2452, read-out: Indisulam IC50, U2AF1 WT
  pIC50: 5.92
H1975; NCI-H1975, read-out: Indisulam IC50 (log 10) (converted), U2AF1 WT
  IC50: 1.51 µM
H1975; NCI-H1975, read-out: Indisulam IC50, U2AF1 WT
  pIC50: 5.82
H2030; NCI-H2030, read-out: Indisulam IC50 (log 10) (converted), U2AF1 WT
  IC50: 79.1 µM
H2030; NCI-H2030, read-out: Indisulam IC50, U2AF1 WT
  pIC50: 4.10
H2444; NCI-H2444, read-out: Indisulam IC50 (log 10) (converted), U2AF1 WT
  IC50: 14.1 µM
H2444; NCI-H2444, read-out: Indisulam IC50, U2AF1 WT
  pIC50: 4.85
H2009; NCI-H2009, read-out: Indisulam IC50 (log 10) (converted), U2AF1 WT
  IC50: 17.4 µM
H2009; NCI-H2009, read-out: Indisulam IC50, U2AF1 WT
  pIC50: 4.76
H1770; NCI-H1770, read-out: Indisulam IC50 (log 10) (converted), U2AF1 WT
  IC50: 16.2 µM
H1770; NCI-H1770, read-out: Indisulam IC50, U2AF1 WT
  pIC50: 4.79
H1993; NCI-H1993, read-out: Indisulam IC50 (log 10) (converted), U2AF1 WT
  IC50: 1.42 µM
H1993; NCI-H1993, read-out: Indisulam IC50, U2AF1 WT
  pIC50: 5.85
HCC366; [1]
  IC50: 6.91 µM
HCC366; [2]
  pIC50: 5.16
H1395; NCI-H1395, read-out: Indisulam IC50 (log 10) (converted), U2AF1 WT
  IC50: 10.9 µM
H1395; NCI-H1395, read-out: Indisulam IC50, U2AF1 WT
  pIC50: 4.96
HCC2018; [1]
  IC50: 6.48 µM
HCC2018; [2]
  pIC50: 5.19
HCC1438; [1]
  IC50: 22.7 µM
HCC1438; [2]
  pIC50: 4.64
H1693; NCI-H1693, read-out: Indisulam IC50 (log 10) (converted), U2AF1 WT
  IC50: 5.17 µM
H1693; NCI-H1693, read-out: Indisulam IC50, U2AF1 WT
  pIC50: 5.29
H441; NCI-H441, read-out: Indisulam IC50 (log 10) (converted), U2AF1 S34F
  IC50: 59.5 µM
H441; NCI-H441, read-out: Indisulam IC50, U2AF1 S34F
  pIC50: 4.23
HCC4017; [1]
  IC50: 12.6 µM
HCC4017; [2]
  pIC50: 4.90
A549; [1]
  IC50: 46.6 µM
A549; [2]
  pIC50: 4.33
H1573
  IC50: ≥ 500 µM
HCC1359; read-out: Indisulam IC50 (log 10) (converted), U2AF1 WT (listed twice)
  IC50: ≥ 50 µM
HCC1359; read-out: Indisulam IC50, U2AF1 WT (listed twice)
  pIC50: ≤ 4.30
H1944; NCI-H1944, read-out: Indisulam IC50 (log 10) (converted), U2AF1 WT
  IC50: 163 µM
H1944; NCI-H1944, read-out: Indisulam IC50, U2AF1 WT
  pIC50: 3.79
H2106; [1]
  IC50: 0.616 µM
H2106; [2]
  pIC50: 6.21
